Measured values from ChEMBL document CHEMBL1131356, “New generation dopaminergic agents. 2. Discovery of 3-OH-phenoxyethylamine and 3-OH-N1-phenylpiperazine dopaminergic templates” (Bioorg Med Chem Lett, 1998).

Legend:
D(4) dopamine receptor [1] = target: T1, D(4) dopamine receptor (Homo sapiens, UniProt P21917); assay: Binding affinity towards human cloned dopamine (hD4.4) receptor expressed in CHO cells using [3H]spiperone as radioligand; format: cell-based
T1 sequence (P21917 whole entry): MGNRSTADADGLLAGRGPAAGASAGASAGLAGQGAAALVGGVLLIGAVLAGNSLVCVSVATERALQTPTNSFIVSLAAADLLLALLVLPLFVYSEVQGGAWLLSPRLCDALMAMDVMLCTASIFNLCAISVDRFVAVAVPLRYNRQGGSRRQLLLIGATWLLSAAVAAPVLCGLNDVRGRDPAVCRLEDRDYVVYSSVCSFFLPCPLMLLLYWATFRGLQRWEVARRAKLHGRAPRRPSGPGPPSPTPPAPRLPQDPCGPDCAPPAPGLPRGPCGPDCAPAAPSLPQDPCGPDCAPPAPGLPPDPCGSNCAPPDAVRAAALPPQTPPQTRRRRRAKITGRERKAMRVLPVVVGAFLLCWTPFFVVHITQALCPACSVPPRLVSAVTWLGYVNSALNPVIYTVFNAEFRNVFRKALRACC

D(2) dopamine receptor [2] = target: T2, D(2) dopamine receptor (Rattus norvegicus, UniProt P61169)
T2 sequence (P61169 whole entry): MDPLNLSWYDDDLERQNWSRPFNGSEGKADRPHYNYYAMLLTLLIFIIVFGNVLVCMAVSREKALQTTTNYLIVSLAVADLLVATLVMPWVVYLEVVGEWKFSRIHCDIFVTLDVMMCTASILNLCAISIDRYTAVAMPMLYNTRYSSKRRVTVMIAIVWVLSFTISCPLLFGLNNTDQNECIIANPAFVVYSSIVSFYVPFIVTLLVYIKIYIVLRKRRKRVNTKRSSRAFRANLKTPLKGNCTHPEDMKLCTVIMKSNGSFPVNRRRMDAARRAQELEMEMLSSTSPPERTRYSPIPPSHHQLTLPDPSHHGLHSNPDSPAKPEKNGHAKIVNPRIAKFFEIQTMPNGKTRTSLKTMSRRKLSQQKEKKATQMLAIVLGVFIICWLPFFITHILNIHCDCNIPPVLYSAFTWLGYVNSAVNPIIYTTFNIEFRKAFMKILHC
Description: Agonistic activity towards dopamine D2 receptor using radioligand [3H]quinpirole in rat striatal membranes

D(3) dopamine receptor = D(3) dopamine receptor (Homo sapiens, UniProt P35462); assay: biochemical
D(3) dopamine receptor, sequence (P35462 whole entry): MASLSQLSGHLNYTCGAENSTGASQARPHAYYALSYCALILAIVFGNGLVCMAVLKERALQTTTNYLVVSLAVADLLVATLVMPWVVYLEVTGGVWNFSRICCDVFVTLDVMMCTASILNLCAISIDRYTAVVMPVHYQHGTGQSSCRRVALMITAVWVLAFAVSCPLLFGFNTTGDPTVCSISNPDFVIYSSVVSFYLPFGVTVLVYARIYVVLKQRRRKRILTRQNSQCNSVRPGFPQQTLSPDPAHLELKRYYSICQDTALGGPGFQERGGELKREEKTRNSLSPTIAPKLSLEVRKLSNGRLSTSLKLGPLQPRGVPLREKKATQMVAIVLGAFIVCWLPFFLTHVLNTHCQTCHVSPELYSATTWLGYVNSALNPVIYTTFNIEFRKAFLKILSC
Description: Binding affinity towards human cloned dopamine (hD3) receptor expressed in CHO cells using [3H]spiperone as radioligand

D(2) dopamine receptor [3] = target: D(2) dopamine receptor (Homo sapiens, UniProt P14416); assay: biochemical
D(2) dopamine receptor (Homo sapiens, UniProt P14416), sequence (P14416 whole entry): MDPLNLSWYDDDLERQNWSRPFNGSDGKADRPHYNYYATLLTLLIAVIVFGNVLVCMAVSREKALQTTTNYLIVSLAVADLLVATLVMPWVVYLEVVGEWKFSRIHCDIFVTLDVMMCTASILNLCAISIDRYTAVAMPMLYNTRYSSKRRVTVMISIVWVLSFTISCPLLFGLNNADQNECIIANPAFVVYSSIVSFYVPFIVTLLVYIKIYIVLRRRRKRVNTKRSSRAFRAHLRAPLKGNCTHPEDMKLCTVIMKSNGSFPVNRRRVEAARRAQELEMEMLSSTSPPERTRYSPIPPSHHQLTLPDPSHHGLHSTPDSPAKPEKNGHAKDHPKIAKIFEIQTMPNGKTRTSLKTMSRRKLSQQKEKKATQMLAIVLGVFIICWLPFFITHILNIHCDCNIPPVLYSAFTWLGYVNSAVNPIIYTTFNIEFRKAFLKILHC
Description: Binding affinity towards human cloned dopamine (hD2s) receptors expressed in CHO cell membranes using [3H]spiperone

D(2) dopamine receptor [4] = target: T2, D(2) dopamine receptor; remark: listed apart in the source
Description: Antagonistic activity towards dopamine D2 receptor using radioligand [3H]spiperone in rat striatal membranes

D(4) dopamine receptor [5] = target: T1, D(4) dopamine receptor; assay: Binding affinity towards human cloned Dopamine receptor D4.4 expressed in CHO cells using [3H]spiperone as radioligand; format: cell-based
[6] = target: T3, 5-hydroxytryptamine receptor 1A (Mus musculus, UniProt Q64264); assay: Binding affinity for 5-hydroxytryptamine 1A receptor
T3 sequence (Q64264 whole entry): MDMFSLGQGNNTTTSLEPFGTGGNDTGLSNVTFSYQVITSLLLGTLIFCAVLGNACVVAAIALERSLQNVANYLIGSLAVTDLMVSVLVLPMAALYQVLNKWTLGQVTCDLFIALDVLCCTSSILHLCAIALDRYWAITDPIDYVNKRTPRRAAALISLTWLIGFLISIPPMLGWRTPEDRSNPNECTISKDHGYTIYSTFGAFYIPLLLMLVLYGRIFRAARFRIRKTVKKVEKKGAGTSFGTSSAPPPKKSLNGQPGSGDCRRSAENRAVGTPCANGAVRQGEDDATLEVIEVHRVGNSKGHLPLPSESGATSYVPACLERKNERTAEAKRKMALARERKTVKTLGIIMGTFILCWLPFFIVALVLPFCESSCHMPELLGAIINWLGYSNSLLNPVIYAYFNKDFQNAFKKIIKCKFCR

[7] = target: T4, Adrenergic receptor alpha-1 (Homo sapiens, UniProt P35348+P25100+P35368); assay: Binding affinity for Alpha-1 adrenergic receptor; format: protein assay
T4 sequence (P35348 whole entry): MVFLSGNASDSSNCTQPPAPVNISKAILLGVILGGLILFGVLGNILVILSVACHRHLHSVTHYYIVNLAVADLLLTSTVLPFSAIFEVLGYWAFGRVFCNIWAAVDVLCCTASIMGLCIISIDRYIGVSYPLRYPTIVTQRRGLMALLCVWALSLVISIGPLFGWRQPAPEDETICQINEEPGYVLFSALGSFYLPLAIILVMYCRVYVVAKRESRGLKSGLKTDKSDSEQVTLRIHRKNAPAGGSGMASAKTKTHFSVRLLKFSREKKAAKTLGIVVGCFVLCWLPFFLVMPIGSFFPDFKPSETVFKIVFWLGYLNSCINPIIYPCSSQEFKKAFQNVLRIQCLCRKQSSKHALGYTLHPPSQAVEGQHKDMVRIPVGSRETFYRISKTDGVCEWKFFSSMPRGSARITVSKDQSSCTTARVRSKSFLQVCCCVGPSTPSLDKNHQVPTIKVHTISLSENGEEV
T4 sequence (P25100 whole entry): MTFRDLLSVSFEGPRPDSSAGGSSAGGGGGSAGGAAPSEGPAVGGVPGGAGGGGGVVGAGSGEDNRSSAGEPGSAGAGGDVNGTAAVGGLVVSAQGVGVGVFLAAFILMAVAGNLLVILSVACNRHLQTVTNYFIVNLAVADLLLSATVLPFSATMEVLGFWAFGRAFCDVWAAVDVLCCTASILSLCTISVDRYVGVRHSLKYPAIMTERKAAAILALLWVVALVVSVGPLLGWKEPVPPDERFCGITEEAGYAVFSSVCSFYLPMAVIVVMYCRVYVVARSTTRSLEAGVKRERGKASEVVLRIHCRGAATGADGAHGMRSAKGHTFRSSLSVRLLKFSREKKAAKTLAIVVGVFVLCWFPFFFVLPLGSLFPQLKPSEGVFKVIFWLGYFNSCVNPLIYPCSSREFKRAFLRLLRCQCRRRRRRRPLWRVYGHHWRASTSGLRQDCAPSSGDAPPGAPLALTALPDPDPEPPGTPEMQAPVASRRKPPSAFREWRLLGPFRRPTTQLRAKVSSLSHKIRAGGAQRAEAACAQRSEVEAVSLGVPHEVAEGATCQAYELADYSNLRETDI
T4 sequence (P35368 whole entry): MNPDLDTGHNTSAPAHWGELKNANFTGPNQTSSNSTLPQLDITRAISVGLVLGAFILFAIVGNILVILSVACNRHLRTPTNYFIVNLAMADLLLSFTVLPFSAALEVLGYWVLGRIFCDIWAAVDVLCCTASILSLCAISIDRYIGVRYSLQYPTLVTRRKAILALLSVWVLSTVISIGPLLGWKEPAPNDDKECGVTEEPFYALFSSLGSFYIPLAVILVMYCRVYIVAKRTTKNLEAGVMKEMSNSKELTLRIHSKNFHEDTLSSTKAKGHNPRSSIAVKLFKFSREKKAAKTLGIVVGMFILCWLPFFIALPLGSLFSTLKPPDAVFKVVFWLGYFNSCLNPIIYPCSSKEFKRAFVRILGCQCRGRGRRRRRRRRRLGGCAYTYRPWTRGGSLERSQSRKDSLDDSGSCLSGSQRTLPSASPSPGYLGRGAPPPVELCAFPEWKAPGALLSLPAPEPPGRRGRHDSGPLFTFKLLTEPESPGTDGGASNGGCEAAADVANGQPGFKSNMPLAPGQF

Mus musculus = assay: Dose required to inhibit locomotor activity in mice when administered subcutaneously; format: functional; conditions: sc

| SMILES | Ki (D(4) dopamine receptor [1]) | Ki (D(2) dopamine receptor [2]) | Ki (D(3) dopamine receptor) | Ki (D(2) dopamine receptor [3]) | Ki (D(2) dopamine receptor [4]) | Ki (D(4) dopamine receptor [5]) | Ki [6] | Ki [7] | ED50 (Mus musculus) |
| --- | --- | --- | --- | --- | --- | --- | --- | --- | --- |
| Oc1ccc(OCCNCc2ccccc2)cc1 | 277 nM | 113 nM | > 5000 nM | > 10000 nM | – | – | – | – | – |
| Oc1ccccc1N1CCN(Cc2ccccc2)CC1 | – | 64.7 nM | > 400 nM | > 300 nM | 118 nM | > 400 nM | – | – | – |
| c1ccc(CN2CCN(c3ccccc3)CC2)cc1 | – | 16.2 nM | > 400 nM | > 300 nM | 124 nM | 267 nM | – | – | – |
| Oc1ccccc1OCCNCc1ccccc1 | 297 nM | 9.6 nM | 281 nM | 456 nM | 191 nM | – | – | – | – |
| CS(=O)(=O)Nc1cc(OCCNCc2cccs2)ccc1F | – | 19.7 nM | > 400 nM | > 300 nM | 11.7 nM | > 400 nM | – | – | – |
| CS(=O)(=O)Nc1cc(OCCNCc2cccs2)ccc1Cl | 137 nM | 2.6 nM | 27.8 nM | 9 nM | 6 nM | – | – | – | – |
| Oc1ccc(N2CCN(Cc3ccccc3)CC2)cc1 | – | 120 nM | > 400 nM | > 300 nM | – | 91.8 nM | – | – | – |
| c1ccc(CNCCOc2ccccc2)cc1 | 94 nM | 68.4 nM | > 400 nM | > 300 nM | 241 nM | – | – | – | – |
| Nc1cc(OCCNCc2ccccc2)ccc1Cl | 27.2 nM | 237 nM | > 1000 nM | > 1000 nM | – | – | – | – | – |
| CS(=O)(=O)Nc1cc(OCCNCc2ccccc2)ccc1F | – | 7.9 nM | > 5000 nM | > 10000 nM | 24.1 nM | – | – | – | – |
| Oc1cccc(OCCNCc2ccccc2)c1 | 80.6 nM | 3.6 nM | 11 nM | 75.8 nM | 101 nM | – | 1780 nM | 5291 nM | 0.08 mg/kg |
| Oc1cccc(N2CCN(Cc3ccccc3)CC2)c1 | – | – | 28.9 nM | – | – | > 400 nM | > 1000 nM | > 1000 nM | 1.4 mg/kg |
| CS(=O)(=O)Nc1cccc(OCCNCc2ccccc2)c1 | 500 nM | 4.4 nM | 42.5 nM | 37.6 nM | 29.3 nM | – | – | – | – |
| CS(=O)(=O)Nc1cc(OCCNCc2ccccc2)ccc1Cl | – | 1.6 nM | 11 nM | 75.8 nM | 3 nM | – | – | – | – |
